Test results: PubChem BioAssay AID1552 (Sanford-Burnham Center for Chemical Genomics, 2009)
Active and inactive are the calls of the source. The rule behind the calls is not given here.

The molecules below were run against Ubiquitin-conjugating enzyme E2 N (Homo sapiens) (UniProt P61088) (assay: NMR detection of UBE2N ligand binding – biophysical, purified protein (AID 1552)). Details: NMR binding to purified UBE2N.
Sequence of Ubiquitin-conjugating enzyme E2 N (Homo sapiens) (P61088 whole entry, looked up): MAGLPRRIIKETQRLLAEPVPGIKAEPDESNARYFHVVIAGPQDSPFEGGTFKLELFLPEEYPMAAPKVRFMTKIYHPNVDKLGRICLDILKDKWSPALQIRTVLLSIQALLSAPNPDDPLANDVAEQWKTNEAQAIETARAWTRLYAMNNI

Row | Structure (SMILES) | Kd
1 | Fc1ccc(F)c(CN2CCN(c3ncccn3)CC2)c1 | > 4 mM (inactive)
2 | CC(C)[C@@H]1CC[C@@H](C)CC1=O | > 4 mM (inactive)
3 | Nc1nc(-c2ccc(Cl)cc2)nn1C(=O)c1cccnc1 | > 4 mM (inactive)
4 | NC1=NC(=O)/C(=C\c2cccnc2)S1 | > 4 mM (inactive)
5 | O=C(O)c1ccc(N2CCCCC2)cc1 | > 4 mM (inactive)
6 | COc1cccc(-c2nc3ccc(O)cc3c(=O)o2)c1 | > 4 mM (inactive)
7 | COc1cccc(NC(=O)c2nc3ncccn3n2)c1 | > 4 mM (inactive)
8 | CN1CCN(C(=S)NC(=O)c2ccn(C)n2)CC1 | > 4 mM (inactive)
9 | O=c1ccc2ccc(O)cc2o1 | > 4 mM (inactive)
10 | Cc1nnc(-n2cnc3ccccc32)c2ccccc12 | > 4 mM (inactive)
11 | COC(=O)CC1SC(=O)NC1=O (stereo not given) | > 4 mM (inactive)
12 | CC1(C)C(=O)C=C[C@@]2(C)C1=C(O)C(=O)[C@]1(C)C2CC[C@@]2(C)[C@H](c3ccoc3)C[C@H]3O[C@]321 (stereo not given in full) | > 4 mM (inactive)
13 | OCC(O)Cc1ccc2c(c1)OCO2 (stereo not given) | > 4 mM (inactive)
14 | COc1cccc(-c2nc(-c3ccccn3)no2)c1OC | > 4 mM (inactive)
15 | CC1(C)Cc2nc3[nH]c(=S)[nH]c(=O)c3cc2CO1 | > 4 mM (inactive)
16 | Cn1c2c(c(=O)n(C)c1=O)CN(Cc1ccco1)CN2 | > 4 mM (inactive)
17 | NS(=O)(=O)c1ccc(NC(=O)/C=C\C(=O)O)cc1 | > 4 mM (inactive)
18 | C[C@@H]1CC[C@@]23CCC4(C)[C@@](C=CC5[C@@]6(C)CCC(=O)C(C)(C)C6CC[C@]54C)(OC2=O)C3[C@H]1C (stereo not given in full) | > 4 mM (inactive)
19 | Cn1c(=O)c2c(n(C)c1=O)=NC1(CCCCC1)N=2 | > 4 mM (inactive)
20 | O=C(c1ccc(F)cc1)N1CCOCC1 | > 4 mM (inactive)
21 | CCSc1n[nH]c(=O)[nH]c1=O | > 4 mM (inactive)
22 | OCC1Cc2ccccc2CN1 (stereo not given) | > 4 mM (inactive)
23 | O=C(NCC1CCCCC1)c1ccco1 | > 4 mM (inactive)

Row | Structure (SMILES) | Kd
24 | COc1nc(C)ccc1-c1noc(-c2ccncc2)n1 | > 4 mM (inactive)
25 | C=C1C(N)CC2CC1C2(C)C (stereo not given) | > 4 mM (inactive)
26 | COc1c(O)cc(O)cc1O | > 4 mM (inactive)
27 | Cc1nnc(NCCO)[nH]c1=O | > 4 mM (inactive)
28 | Cc1cc2nc(SCC(=O)O)nc(C)c2cc1C | > 4 mM (inactive)
29 | O=c1[nH]c(O)c(C=NCc2cccs2)c(=O)[nH]1 | > 4 mM (inactive)
30 | CC(=O)c1cc(C)ccc1O | > 4 mM (inactive)
31 | Cc1cn(C(=O)CN2C(=O)c3ccccc3C2=O)c(C)n1 | > 4 mM (inactive)
32 | O=C(O)c1cc(=O)c2cccc(O)c2[nH]1 | > 4 mM (inactive)
33 | Cc1nnsc1C(=O)Nc1cccc(S(N)(=O)=O)c1 | > 4 mM (inactive)
34 | CC12OC(=O)CC3C(C)(C)[C@H](O)C=C[C@]3(C)C1CC[C@]1(C)C2=CC(=O)O[C@H]1c1ccoc1 (stereo not given in full) | > 4 mM (inactive)
35 | CSc1nnnn1-c1cccc(O)c1 | > 4 mM (inactive)
36 | CCOC(=O)C1CCC(=O)c2cccn21 (stereo not given) | > 4 mM (inactive)
37 | Cc1cc2cc(N)ccc2[nH]1 | > 4 mM (inactive)
38 | O=C1COc2ccccc2C(=O)N1 | > 4 mM (inactive)
39 | O=C(O)C1=C[C@@H](O)[C@@H](O)[C@H](O)C1 | > 4 mM (inactive)
40 | Cc1nnc(NCc2ccc3c(c2)OCO3)[nH]c1=O | > 4 mM (inactive)
41 | Cc1nc(-c2cnccn2)sc1C(=O)O | > 4 mM (inactive)
42 | COc1ccc(Cl)cc1-c1n[nH]c(=S)n1C | > 4 mM (inactive)
43 | Cc1noc(C)c1C(=O)N1CCN(c2ncccn2)CC1 | > 4 mM (inactive)
44 | CS(=O)(=O)N/N=C/c1cccs1 | > 4 mM (inactive)
45 | CCOC(=O)c1c(C)cc(O)c(C)c1O | > 4 mM (inactive)
46 | NC[C@H]1O[C@H](O[C@H]2[C@H](O)[C@@H](O[C@H]3O[C@H](CO)[C@@H](O)[C@H](N)[C@H]3O)[C@H](N)C[C@@H]2N)[C@H](N)[C@@H](O)[C@@H]1O | > 4 mM (inactive)

Row | Structure (SMILES) | Kd
47 | Nc1cc2ccccc2cn1 | > 4 mM (inactive)
48 | CCc1ccccc1NC(=O)c1ccoc1C | > 4 mM (inactive)
49 | C/C=C(/C)C(=O)O[C@H]1CC[C@@]2(C)[C@@H]3CC[C@H]4[C@]5(O)C[C@H](O)[C@@]6(O)[C@@H](CN7C[C@@H](C)CC[C@H]7[C@@]6(C)O)[C@]5(O)C[C@@]42OC13O | > 4 mM (inactive)
50 | Nc1nnc(SCc2ccccc2Cl)s1 | > 4 mM (inactive)
51 | Cn1c(=O)n(-c2cccc(Cl)c2)c(=O)n1C | > 4 mM (inactive)
52 | COc1ccc2[nH]cc(CN(C)C)c2c1 | > 4 mM (inactive)
53 | O=[N+]([O-])c1ccc(/C=N/c2ncn[nH]2)cc1 | > 4 mM (inactive)
54 | O=C(Nc1ccc(N2CCOCC2)cc1)C1CC1 | > 4 mM (inactive)
55 | CN1C(=O)CC(=O)N(C)c2ccccc21 | > 4 mM (inactive)
56 | Cc1c(-c2ccc(F)cc2)[n+](=O)c2c(n1[O-])CCC2 | > 4 mM (inactive)
57 | CNC(=O)c1cc2cccc(OC)c2oc1=O | > 4 mM (inactive)
58 | CN1CCC(NC(=O)C2CCCO2)CC1 (stereo not given) | > 4 mM (inactive)
59 | O=C(NCc1cccc(Cl)c1)c1ccco1 | > 4 mM (inactive)
60 | Cc1ccc(C(=O)N2CCOCC2)cc1Cl | > 4 mM (inactive)
61 | COC(=O)c1ccc(N2CCCC2)nc1 | > 4 mM (inactive)
62 | CC1=NN2C(=N)CC(=O)N=C2S1 | > 4 mM (inactive)
63 | c1ccc(C[N+]23CCN(CC2)CC3)cc1 | > 4 mM (inactive)
64 | Cc1sc2nc(C)n(NC(N)=O)c(=O)c2c1C | > 4 mM (inactive)
65 | Cn1ncc(NC(=O)Nc2ccc(F)cc2F)c1C(N)=O | > 4 mM (inactive)
66 | COCCn1c(C)cc(O)cc1=O | > 4 mM (inactive)
67 | NC1Cc2ccccc2C1 | > 4 mM (inactive)
68 | COCCn1cnc2cc(C)c(C)cc21 | > 4 mM (inactive)
69 | NC(=S)NC(=O)CN1C(=O)c2ccccc2C1=O | > 4 mM (inactive)

Row | Structure (SMILES) | Kd
70 | COC(=O)[C@]1(C)CCC[C@]2(C)c3ccc(C(C)C)cc3C(=O)CC12 (stereo not given in full) | > 4 mM (inactive)
71 | O=C(NCc1ccco1)c1ccc(Br)s1 | > 4 mM (inactive)
72 | CC(=O)N=c1cccc(NC(C)=O)n1O | > 4 mM (inactive)
73 | COc1cccc(=O)c2c(C)n(C)c(C)c12 | > 4 mM (inactive)
74 | O=c1c2ccccc2nc(-c2ccco2)n1-c1nccs1 | > 4 mM (inactive)
75 | Nc1[nH]c(=S)[nH]c(=O)c1-c1ccccc1 | > 4 mM (inactive)
76 | Cc1cc(-c2ccc(Cl)cc2)n2nc(N)nc2n1 | > 4 mM (inactive)
77 | CCNS(=O)(=O)c1ccc(OC)c(C)c1 | > 4 mM (inactive)
78 | Cc1ccc(C(=O)NC2=NCCS2)o1 | > 4 mM (inactive)
79 | OCc1ccc2c(c1)OCCO2 | > 4 mM (inactive)
80 | Nc1ccc(-n2cccc2)cc1 | > 4 mM (inactive)
81 | O=C(Cc1cccs1)Nc1nncs1 | > 4 mM (inactive)
82 | CN=C(c1ccc([N+](=O)[O-])cc1)N(C)C | > 4 mM (inactive)
83 | CC1(C)NC(=O)N(CCOc2ccc3c(c2)CCC3)C1=O | > 4 mM (inactive)
84 | NC(CC(=O)O)C(=O)Nc1ccc(Cl)cc1 (stereo not given) | > 4 mM (inactive)
85 | O=C(NCc1cccs1)c1nn2cccnc2c1Cl | > 4 mM (inactive)
86 | COC(=O)CC1C(C)(C)C(OC(C)=O)[C@@H]2[C@@H](OC(C)=O)[C@]34O[C@@]2(O)[C@]1(C)C3CC[C@]1(C)C4=CC(=O)O[C@H]1c1ccoc1 (stereo not given in full) | > 4 mM (inactive)
87 | O=C(c1ccc(N2CCNCC2)cc1)c1cccnc1 | > 4 mM (inactive)
88 | O=C1CN(c2ccccc2)CC(=O)N1 | > 4 mM (inactive)
89 | Cc1nc(-c2ccc(C(=O)N3CCOCC3)cc2)cs1 | > 4 mM (inactive)
90 | NC(=O)C1CCN(S(=O)(=O)c2ccccc2)CC1 | > 4 mM (inactive)
91 | O=C(NCO)c1ccccc1Cl | > 4 mM (inactive)
92 | CCOC(=O)C1CN(C)CCN1C (stereo not given) | > 4 mM (inactive)

Row | Structure (SMILES) | Kd
93 | NC(=O)C1CCN(C(=O)Nc2ccccc2)CC1 | > 4 mM (inactive)
94 | C=Cc1c(C)c2cc3[nH]c(cc4nc(cc5nc(cc1[nH]2)C(C)=C5CCC(=O)O)C(CCC(=O)O)=C4C)c(C)c3C=C | > 4 mM (inactive)
95 | CC(=O)O[C@@H]1CC2C(C)(CC[C@H](O)C2(C)C)C2CC[C@]3(C)C(=CC(=O)O[C@H]3c3ccoc3)C21C (stereo not given in full) | > 4 mM (inactive)
96 | CC1=C(/C=C/C(C)=C/C=C/C(C)=C/C=C/C=C(C)/C=C/C=C(C)/C=C/C(=O)[C@]2(C)C[C@@H](O)CC2(C)C)C(C)(C)C[C@H](O)C1 | > 4 mM (inactive)
97 | CC(=O)N1CC2(C)CN(C(C)=O)CC(C)(C1)C2 | > 4 mM (inactive)
98 | CC1(C)C=Cc2cc3ccc(=O)oc3cc2O1 | > 4 mM (inactive)
99 | O=C1C2C3C=CC(C3)C2C(=O)N1c1ccccn1 (stereo not given) | > 4 mM (inactive)
100 | Cc1nnc(SCc2ccccc2)[nH]c1=O | > 4 mM (inactive)
101 | COc1ccc2c(c1OC)C(=O)O[C@H]2[C@H]1c2cc3c(cc2CCN1C)OCO3 | > 4 mM (inactive)
102 | CSc1ncnc2nc[nH]c12 | > 4 mM (inactive)
103 | Nc1nc(-c2ccccc2)cc(=O)[nH]1 | > 4 mM (inactive)
104 | CCC(CCC(C)[C@H]1CCC2C3CC=C4C[C@@H](O)CC[C@]4(C)C3CC[C@@]21C)C(C)C (stereo not given in full) | > 4 mM (inactive)
105 | O=c1ccc2nc3ccccc3c(=O)n2[nH]1 | > 4 mM (inactive)
106 | CSc1nc(C)cc(Oc2ccc(=O)n(C)n2)n1 | > 4 mM (inactive)
107 | NC(=O)CSc1ncnc2ccccc12 | > 4 mM (inactive)
108 | COc1ccc2c(c1)OCC(Cc1ccc(OC)c(O)c1)C2=O (stereo not given) | > 4 mM (inactive)
109 | O=C1C[C@@H](c2ccccc2)Oc2cc(O)cc(O)c21 | > 4 mM (inactive)
110 | O=c1[nH]c(CN2CCN(CCO)CC2)nc2ccccc12 | > 4 mM (inactive)
111 | C[C@H]1C(=O)CCC2[C@]3(C)CC[C@@]4(C)C5CC(C)(C)CC[C@]5(C)CC[C@]4(C)C3CC[C@@]21C (stereo not given in full) | > 4 mM (inactive)
112 | O=C(c1cnsn1)N1CCN(c2ccccn2)CC1 | > 4 mM (inactive)
113 | OC[C@@H]1CCCN2CCCC[C@H]12 | > 4 mM (inactive)
114 | Cc1cc(C)n(CCC(=O)O)n1 | > 4 mM (inactive)
115 | NC1=NC(=O)/C(=C/c2cccs2)S1 | > 4 mM (inactive)
